Legend:
[1] = biological target: colchicine site of tubulin (Sus scrofa, UniProt P02554); assay: Colchicine competition assay; format: binding; details: 37° C. for 1 h
Protocol: Tubulin ([…]) and colchicine ([…]) were incubated with the various concentrations of AS1712, nocodazole, or vincristine in 80 mM PIPES, 2 mM MgCl2, 0.5 mM EGTA, pH 6.9 at 37° C. for 1 h. Fluorescence intensities (excitation and emission wavelengths at 365 and 435 nm, respectively) were recorded using an Infinite M200 plate reader (Tecan). Fluorescence values were normalized to the DMSO control.

[2] = biological target: tubulin (Sus scrofa, UniProt P02554); assay: Limited proteolysis assay; format: binding; details: 100 μM, 30 min at 30° C.
Protocol: Tubulin (1 mg/mL) was incubated individually with a test compound for 30 min at 30° C. in 0.1 M morpholino ethanesulfonic acid, 1 mM MgCl2, 1 mM EGTA, pH 6.9, and then 25 μg/mL trypsin (TPCK-treated, Sigma Aldrich; 1:40 [w/w] trypsin/tubulin) was added to the solution for a 10-min digestion at 4° C. Samples were electrophoresed through a 15% SDS-PAGE gel and stained with Coomassie brilliant blue R250. The images were scanned and quantified using a BioSpectrum Imaging System (UVP).

[3] = biological target: T1, Purified porcine tubulin (Sus scrofa, UniProt P02554); assay: In vitro tubulin polymerization assay; format: biochemical; details: 5 μM, A340 every min for 1 h at 37° C.
T1 construct: purchased Cytoskeleton
Protocol: Reagents from a Tubulin Polymerization Assay kit (Cytoskeleton) were used according to the manufacturer's instructions. Purified porcine tubulin (4 mg/mL; >99% purity) in G-PEM buffer (80 mM PIPES, 2 mM MgCl2, 0.5 mM EGTA, 1 mM GTP, 15% glycerol, pH 6.9) was mixed with each test compound in the wells of a 96-well plate. Then, the A340 value was recorded each minute for 1 h at 37° C. with the VersaMax microplate reader.

[4] = test system: KB; assay: Cell cytotoxicity assay (MTS), KB; format: cell-based; details: Homo sapiens
Protocol: (§1) Cells were seeded into the wells of 96-well plates (2000 cells/well). After an overnight culture, the cells were treated with different concentrations of a compound for 72 h. The CellTiter 96 AQueous one-solution cell proliferation assay (MTS) reagent was used to determine cytotoxicity. After treatment with a compound, 20 μL of the MTS reagent was added to each well and the plates were incubated at 37° C. for 1-4 h. Next, the absorbance at 490 nm of the culture medium in each well was determined using a VersaMax microplate reader (Molecular Devices).

[5] = test system: CEM/VBL; assay: Cell cytotoxicity assay (MTS), CEM/VBL; format: cell-based, human
Protocol: as §1

[6] = test system: CCRF-CEM; assay: Cell cytotoxicity assay (MTS), CCRF-CEM; format: cell-based; details: Homo sapiens
Protocol: as §1

[7] = test system: KBtax; assay: Cell cytotoxicity assay (MTS), KBtax; format: cell-based, human; details: Homo sapiens; KBtax, P-gp overexpressing, paclitaxel-selected KB subline
Protocol: as §1

[8] = test system: KBvin; assay: Cell cytotoxicity assay (MTS), KBvin; format: cell-based, human
Protocol: as §1

| SMILES | colchicine fluorescence [1] | tryptic pattern after limited trypsin digestion [2] | tubulin polymerization [3] | IC50 [4] [nM] | RF, resistance factor (IC50 in resistant cell line/IC50 in parent cell line) ([5]; CEM/VBL vs CCRF-CEM) | IC50 ([5]; Homo sapiens, CEM/VBL, P-gp overexpressing, vinblastine-selected CCRF-CEM subline) [nM] | IC50 [6] [nM] | IC50 [7] [nM] | IC50 ([8]; Homo sapiens, KBvin, P-gp overexpressing, vincristine-selected KB subline) [nM] | RF, resistance factor (IC50 in resistant cell line/IC50 in parent cell line) ([8]; KBvin vs KB) |
| --- | --- | --- | --- | --- | --- | --- | --- | --- | --- | --- |
| COC(=O)Nc1nc2ccc(C(=O)c3cccs3)cc2[nH]1 [nocodazole] | decreased the colchicine fluorescence in a dose-dependent manner | produced an increased amount of βcol | inhibit tubulin polymerization | – | – | – | – | – | – | – |
| CC[C@]1(O)C[C@H]2CN(CCc3c([nH]c4ccccc34)[C@@](C(=O)OC)(c3cc4c(cc3OC)N(C=O)[C@H]3[C@@](O)(C(=O)OC)[C@H](OC(C)=O)[C@]5(CC)C=CCN6CC[C@]43[C@@H]65)C2)C1 [Vincristine, vincristine] | did not | decreased the amount of the βcol, αN, and αC fragments | inhibit tubulin polymerization | 5 ± 0.31 | 440 | 1320 ± 20.6 | 3 ± 0.04 | 49 ± 2.96 | 817 ± 47.4 | 163 |
